Patent US12492173B2, “Herbicidal substituted N-tetrazolyl aryl carboxamides” (Bayer Aktiengesellschaft, priority 2019, dated 2025)

What was measured:
Type in all cases: in vivo
Pharbitis purpurea = test: Post-emergence herbicidal action, PHBPU
Outline: (§1)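 Treatment: post-emergence spray, one-leaf stage. Medium: sandy loam, greenhouse. Carrier: 600–800 l/ha water, 0.2% wetting agent. Read-out: visual % activity at ~3 weeks, untreated plants as reference.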

Echinochloa crus-galli = test: Post-emergence herbicidal action, ECHCG; parameters: key: % herbicidal action vs untreated; 100 = plants died, 0 = like control
Outline: as §1

Amaranthus retroflexus = test: Pre-emergence herbicidal action, AMARE; details: dosage 320 g/ha; for herbicidal activity AMARE: scored visually after 3 weeks vs untreated controls (100% = plants have died)
Outline: (§2)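 Seeds were covered with sandy loam soil, then received a pre-emergence surface spray of the WP- or EC-formulated compound. After 3 weeks under good greenhouse growth conditions, damage was scored visually in percent.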

Polygonum convolvulus = test: Pre-emergence herbicidal action, POLCO; details: dosage 320 g/ha, scored visually after 3 weeks vs untreated controls (100% = plants have died)
Outline: as §2

Veronica persica = test: Pre-emergence herbicidal action, VERPE; details: dosage 320 g/ha; for herbicidal activity VERPE: scored visually after 3 weeks vs untreated controls (100% = plants have died)
Outline: as §2

Stellaria media = test: Post-emergence herbicidal action, STEME; parameters: key: % herbicidal action vs untreated; 100 = plants died, 0 = like control
Outline: as §1

Setaria viridis = test: Pre-emergence herbicidal action, SETVI; details: dosage 320 g/ha, scored visually after 3 weeks vs untreated controls (100% = plants have died)
Outline: as §2

[1] = comparative experiment, post-emergence, 5 g of a.i./ha

Row | SMILES | herbicidal action PHBPU (Pharbitis purpurea; Dosage 80 g/ha) | herbicidal action ECHCG (Echinochloa crus-galli; Dosage 80 g/ha) | herbicidal activity AMARE (Amaranthus retroflexus) | herbicidal activity POLCO (Polygonum convolvulus) | herbicidal activity VERPE (Veronica persica) | herbicidal action STEME (Stellaria media; Dosage 80 g/ha) | herbicidal activity SETVI (Setaria viridis) | herbicidal action PHBPU (Pharbitis purpurea; post-emergence, dosage 80 g/ha) | herbicidal action ECHCG (Echinochloa crus-galli; post-emergence, dosage 80 g/ha) | herbicidal action STEME (Stellaria media; post-emergence, dosage 80 g/ha) | Herbicidal action against ECHCG (Echinochloa crus-galli; [1]) | herbicidal action AMARE (Amaranthus retroflexus) | herbicidal action VERPE (Veronica persica) | Herbicidal action against PHBPU (Pharbitis purpurea; [1])
1 | CCCn1nnnc1NC(=O)c1ccc(C(F)(F)F)c(CSCC)c1Cl [Example 3-299] | 90 | 90 | 100% | 90% | 100% | 100 | 100% |  |  |  |  |  |  | 
2 | CCn1nnnc1NC(=O)c1ccc(C)c(CSC)c1Cl [Example 2-287] | 90 | 100 | 100% |  | 100% | 100 | 90% |  |  |  |  |  |  | 
3 | CCn1nnnc1NC(=O)c1ccc(C(F)(F)F)c(CSC)c1SC [Example 2-161] |  |  | 100% | 90% | 100% |  | 100% | 90% | 90% | 100% |  |  |  | 
4 | CSCc1c(C(F)F)ccc(C(=O)Nc2nnnn2C)c1C [Example 1-107, 4-(difluoromethyl)-2-methyl-3-[(methylsulfanyl)methyl]-N-(1-methyl-1H-tetrazol-5-yl)benzamide] | 80 | 90 | 100% | 80% | 100% | 100 | 100% |  |  |  | 80 |  |  | 
5 | CCCn1nnnc1NC(=O)c1ccc(C(F)(F)F)c(C[S+](C)[O-])c1Cl (stereo not drawn) [Example 3-297] |  |  | 100% |  | 100% |  | 100% | 90% | 80% | 100% |  |  |  | 
6 | CCn1nnnc1NC(=O)c1ccc(C(F)(F)F)c(CS(C)(=O)=O)c1OC [Example 2-136] | 90 | 100 | 100% | 100% | 100% | 100 | 80% |  |  |  |  |  |  | 
7 | Cn1nnnc1NC(=O)c1ccc(C(F)(F)F)c(C[S+](C)[O-])c1F (stereo not drawn) [Example 1-243] | 100 | 100 | 100% |  | 100% | 100 | 100% |  |  |  |  |  |  | 
8 | CCCn1nnnc1NC(=O)c1ccc(C(F)(F)F)c(CSC)c1Br [Example 3-380] | 90 | 90 | 100% | 80% | 90% | 100 | 100% |  |  |  |  |  |  | 
9 | CCCn1nnnc1NC(=O)c1ccc(C(F)F)c(CSC)c1C [Example 3-107] | 80 | 90 | 100% | 90% | 100% | 80 | 100% |  |  |  |  |  |  | 
10 | Cn1nnnc1NC(=O)c1ccc(C(F)(F)F)c(CS(C)(=O)=O)c1Cl [Example 1-298] |  |  | 100% |  | 100% |  | 100% | 100% | 90% | 100% |  |  |  | 
11 | Cc1ccc(C(=O)Nc2nnnn2C)c(Cl)c1CS(C)(=O)=O [Example 1-289] | 90 | 100 | 100% | 80% | 100% | 100 | 90% |  |  |  |  |  |  | 
12 | Cn1nnnc1NC(=O)c1ccc(C(F)(F)F)c(CS(C)(=O)=O)c1F [Example 1-244] | 100 | 90 | 100% |  | 100% | 100 | 100% |  |  |  |  |  |  | 
13 | CCn1nnnc1NC(=O)c1ccc(C(F)(F)F)c(C[S+](C)[O-])c1OC (stereo not drawn) [Example 2-135] | 100 | 100 | 100% | 90% | 100% | 100 | 100% |  |  |  |  |  |  | 
14 | CCCn1nnnc1NC(=O)c1ccc(C(F)(F)F)c(CS(=O)(=O)CC)c1C [Example 3-88] | 90 | 90 | 100% |  | 100% | 100 | 100% |  |  |  |  |  |  | 
15 | CSCc1c(C(F)(F)F)ccc(C(=O)Nc2nnnn2C)c1SC [Example 1-161] | 90 | 90 | 100% |  | 100% | 100 | 100% |  |  |  |  |  |  | 
16 | CCn1nnnc1NC(=O)c1ccc(S(C)(=O)=O)c(CS(C)(=O)=O)c1C [Example 2-39] | 90 | 90 |  |  |  | 100 |  |  |  |  |  | 100% | 100% | 
17 | CCn1nnnc1NC(=O)c1ccc(C(F)(F)F)c(C[S+](C)[O-])c1Br (stereo not drawn) [Example 2-381] |  |  | 100% |  | 100% |  | 100% | 100% | 90% | 100% |  |  |  | 
18 | CSCc1c(C(F)(F)F)ccc(C(=O)Nc2nnnn2C)c1Br [Example 1-380] |  |  | 100% |  | 100% |  | 100% | 90% | 90% | 100% |  |  |  | 
19 | Cn1nnnc1NC(=O)c1ccc(C(F)(F)F)c(C[S+](C)[O-])c1Cl (racemic) [Example 1-297] |  |  | 100% |  | 100% |  | 100% | 100% | 100% | 100% |  |  |  | 80
20 | CCCn1nnnc1NC(=O)c1ccc(C(F)F)c(C[S+]([O-])CC)c1Cl (stereo not drawn) [Example 3-324] | 100 | 100 | 100% | 100% |  | 100 | 100% |  |  |  |  |  |  | 
21 | CSCc1c(C(F)(F)F)ccc(C(=O)Nc2nnnn2C)c1Cl [Example 1-296] |  |  | 100% |  | 100% |  | 100% | 100% | 100% | 100% |  |  |  | 
22 | Cc1c(C(=O)Nc2nnnn2C)ccc(C(F)(F)F)c1C[S+](C)[O-] (stereo not drawn) [Example 1-84] |  |  |  | 90% | 100% |  | 100% | 100% | 90% | 100% |  |  |  | 
